Where a name gives a salt, the structure may show the parent alone.

In one assay the test system is S. epidermidis. In words: Dispersion of preformed S. epidermidis biofilm. Type of assay: cell-based, Staphylococcus epidermidis. Particulars: concentration that disperses 50% of a pre-formed biofilm. On the procedure: A dose-response study was then initiated in which both the IC50 and EC50 value of each compound towards the bacterial strains were determined (Table 1). Here, IC50 is defined as the concentration of compound that inhibits 50% biofilm development while EC50 is defined as the concentration of compound that disperses 50% of a pre-formed biofilm.
Procedure to Determine the Dispersal Effect of Test Compounds on E. faecium, MRSA and S. epidermidis Preformed Biofilms:
Dispersion assays were performed by taking an overnight culture of bacterial strain and subculturing it at an OD600 of 0.01 into the necessary media (brain heart infusion for E. faecium, tryptic soy broth with a 0.5% glucose supplement (TSBG) for MRSA and tryptic soy broth with a 0.5% glucose supplement and a 3.0% NaCl supplement (TGN) for S. epidermidis. The resulting bacterial suspension was aliquoted (100 μL) into the wells of a 96-well PVC microtiter plate. Plates were then wrapped in GLAD Press n′ Seal® followed by an incubation under stationary conditions at ambient temperature to establish the biofilms. After 24 h, the media was discarded from the wells and the plates were washed thoroughly with water. Stock solutions of predetermined concentrations of the test compound were then made in the necessary media. These stock solutions were aliquoted (100 μL) into the wells of the 96-well PVC microtiter plate with the established biofilms. Media alone was added to a subset of the wells to serve as a control. Sample Plates were then incubated for 24 h at 37° C. After incubation, the media was discarded from the wells and the plates were washed thoroughly with water. Plates were then stained with 100 μL of 0.1% solution of crystal violet (CV) and then incubated at ambient temperature for 30 min. Plates were washed with water again and the remaining stain was solubilized with 200 μL of 95% ethanol. A sample of 125 μL of solubilized CV stain from each well was transferred to the corresponding wells of a polystyrene microtiter dish. Biofilm dispersion was quantitated by measuring the OD540 of each well in which a negative control lane wherein no biofilm was formed served as a background and was subtracted out.

The test system of assay [1] is E. faecium, MRSA and S. epidermidis. As to the kind of experiment: Mitigating effects of zinc on biofilm formation inhibition. It is filed as cell-based. Conditions: for effect of Zn(II) on ability to inhibit biofilm development: 50.0 μM compound, 25.0-200.0 μM ZnCl2, dose-dependent, hydrochloride. From the text: Next, Zn(II) homeostasis was examined. Zn(II) has been implicated in the pathogenesis of Gram-positive bacterial infections and may be an important regulator of biofilm formation (Conrady, D. G.; Brescia, C. C.; Horii, K.; Weiss, A. A.; Hassett, D. J.; Herr, A. B. Proceedings of the National Academy of Sciences of the United States of America 2008, 105, 19456-19461).
Procedure to Determine the Mitigating Effects of Zinc on E. faecium, MRSA and S. epidermidis Biofilm Formation Inhibition Induced by 2-(2-Amino-1H-Benzo[d]Imidazol-6-Ylcarbamoyl)-3,4,5,6-Tetrachlorobenzoic Acid Hydrochloride:
Inhibition assays were performed by taking an overnight culture of bacterial strain and subculturing it at an OD600 of 0.01 into the necessary media (brain heart infusion for E. faecium, tryptic soy broth with a 0.5% glucose supplement (TSBG) for MRSA, Luria-Bertani (LB) media for MDRAB, Luria-Bertani media without NaCl (LBNS) for PAO1 and tryptic soy broth with a 0.5% glucose supplement and a 3.0% NaCl supplement (TGN) for S. epidermidis. Stock solutions of 50.0 μM 2-(2-amino-1H-benzo[d]imidazol-6-ylcarbamoyl)-3,4,5,6-tetrachlorobenzoic acid hydrochloride were then made in the necessary media. Samples were then doped with 25.0, 50.0, 75.0, 100.0, 150.0 and 200.0 μM ZnCl2 with controls in which no test compound was added to examine effects of 200.0 μM ZnCl2 on biofilm formation. These stock solutions were aliquoted (100 μL) into the wells of the 96-well PVC microtiter plate. Sample plates were then wrapped in GLAD Press n′ Seal® followed by an incubation under stationary conditions for 24 h at 37° C. After incubation, the media was discarded from the wells and the plates were washed thoroughly with water. Plates were then stained with 100 μL of 0.1% solution of crystal violet (CV) and then incubated at ambient temperature for 30 min. Plates were washed with water again and the remaining stain was solubilized with 200 μL of 95% ethanol. A sample of 125 μL of solubilized CV stain from each well was transferred to the corresponding wells of a polystyrene microtiter dish. Biofilm inhibition was quantitated by measuring the OD540 of each well in which a negative control lane wherein no biofilm was formed served as a background and was subtracted out.

For the compound `Nc1nc2ccc(NC(=O)c3c(Cl)c(Cl)c(Cl)c(Cl)c3C(=O)O)cc2[nH]1` [Compound 3, 2-(2-amino-1H-benzo[d]imidazol-6-ylcarbamoyl)-3,4,5,6-tetrachlorobenzoic acid hydrochloride], the results for the EC50 with S. epidermidis (Staphylococcus epidermidis) and in the assay on S. epidermidis (hydrochloride) were 7.25 µM and 7.3 µM, respectively. In addition, the figures for the “effect of Zn(II) on ability to inhibit biofilm development” value in assay [1] and in assay [1] (listed as 2-(2-amino-1H-benzo[d]imidazol-6-ylcarbamoyl)-3,4,5,6-tetrachlorobenzoic acid hy) were “suppressed the ability of 3 to inhibit biofilm development” and “mitigate the biofilm inhibition response”, respectively. Besides, in assay [1] (200 μM ZnCl2), the “biofilm formation inhibition when supplemented with ZnCl2” value is “unable to inhibit biofilm formation”.

The EC50 is the midpoint of the concentration-response curve. A higher EC50 goes with a need for much substance.
